Test results reported in publication PMC8348766, “Enhancement of Anti-Tumoral Immunity by β-Casomorphin-7 Inhibits Cancer Development and Metastasis of Colorectal Cancer” (International Journal of Molecular Sciences, 2021).
No end group written: not given here.

Experiments:
[1] = target: T1, CD10 (Homo sapiens, UniProt P08473); experiment: Suppression of CD10-mediated BCM degradation by thiorphan; assay type: biochemical; conditions: TOP 1 μM in combination with CD10; 125I-labeled BCM 50 μg
[2] = target: T1, CD10; experiment: Degradation of 125I-labeled BCM by CD10; assay type: in vitro ADME
Method: Figure 1 Effect of BCM on spleen cells and degradation of BCM by CD10. (A) Effect of BCM on subpopulations of spleen cells. Spleen cells of BALB/c mice were treated with BCM (0.1 μg/mL) for 48 h. Differentiation markers were examined by ELISA. (B) Effect of CD10 on degradation of BCM. ^125I-labeled BCM (50 μg) was incubated with CD10 for 16 h. Intact BCM bound to anti-BCM antibody and degraded peptides were separated with electrophoresis and detected by autoradiography. […] (E) Time course of degradation of BCM by CD10. ^125I-labeled BCM (50 μg) was incubated with CD10 (60 μg) and TOP (1 μM). (F) Effect of degraded BCM on subset of spleen cells. Error bar, standard deviation from three independent trials. BCM, β-casomorphin-7; cluster of differentiation; ELISA, enzyme-linked immunosorbent assay; Treg, regulatory T cell; tyr-pro, 1st and 2nd amino acids of BCM; Ab, anti-BCM antibody; TOP, thiorphan.
The N-terminal tyrosine of BCM was labeled with ^125I, and then treated with CD10, followed by treatment with an anti-BCM antibody and electrophoresis in a 15–25% polyacrylamide gel. […] It is considered that a short fragment of tyr-pro at the N-terminal of ^125I-labeled BCM was cleaved. […] In contrast, no decrease in intact BCM was observed when it was additionally treated with TOP. Of note, the CD10 degradation product of BCM had no effect on the lymphocyte subset (Figure 1F).
BCM was purchased from Sigma. Di-amino acid peptide (tyr-pro; 1st and 2nd amino acids of BCM) was synthesized by Peptide Institute Inc. (Ibaraki, Japan). BCM and the tyr-pro peptide were labeled by chloramine-T method with ^125I (J-RAM, Tokyo, Japan) using Pierce™ iodination beads (Thermo Fisher). Labeled BCM was incubated with CD10 in neutral peptidase assay buffer (40 mM Tris-HCl pH 7.1, 4 mM MgCl2, 0.5 mM ZnCl2) for 16 h. Thereafter, the solution was incubated with anti-BCM antibody (Abnova, Taipei City, Taiwan) at 37 °C for 2 h. […] The radioactivity of the solution was also measured by a fluid scintillation counter (LSC-8000, Hitachi, Tokyo, Japan).

[3] = cited from earlier work
Excerpt: BCM also acts on the immune system. […] Conversely, BCM suppresses lymphocyte proliferation at low concentrations, but promotes it at high concentrations above 10^−7 M [18] by activating the T cell helper (Th)-2 pathway, which induces an inflammatory response in the gut. […] Therefore, under such physiological conditions, BCM presents only in low concentrations and might suppress the immune syst ... || The CD10 that we examined in this study has various alternative names, including membrane metalloendopeptidase, common acute lymphocytic leukemia antigen, neprilysin, neutral endopeptidase, enkephalinase, and atriopeptidase [NCBI, OMIM]. CD10 is known to degrade short peptides such as natriuretic peptides, angiotensin II, bradykinin, apelins, substance P, and adrenomedullin [38]. CD10 expression is widespread in the intestinal mucosa. Incubation of BCM with brush border of the intestinal mucosa degrades 95% of BCM in 24 h.

T1 sequence (P08473 whole entry, species assumed): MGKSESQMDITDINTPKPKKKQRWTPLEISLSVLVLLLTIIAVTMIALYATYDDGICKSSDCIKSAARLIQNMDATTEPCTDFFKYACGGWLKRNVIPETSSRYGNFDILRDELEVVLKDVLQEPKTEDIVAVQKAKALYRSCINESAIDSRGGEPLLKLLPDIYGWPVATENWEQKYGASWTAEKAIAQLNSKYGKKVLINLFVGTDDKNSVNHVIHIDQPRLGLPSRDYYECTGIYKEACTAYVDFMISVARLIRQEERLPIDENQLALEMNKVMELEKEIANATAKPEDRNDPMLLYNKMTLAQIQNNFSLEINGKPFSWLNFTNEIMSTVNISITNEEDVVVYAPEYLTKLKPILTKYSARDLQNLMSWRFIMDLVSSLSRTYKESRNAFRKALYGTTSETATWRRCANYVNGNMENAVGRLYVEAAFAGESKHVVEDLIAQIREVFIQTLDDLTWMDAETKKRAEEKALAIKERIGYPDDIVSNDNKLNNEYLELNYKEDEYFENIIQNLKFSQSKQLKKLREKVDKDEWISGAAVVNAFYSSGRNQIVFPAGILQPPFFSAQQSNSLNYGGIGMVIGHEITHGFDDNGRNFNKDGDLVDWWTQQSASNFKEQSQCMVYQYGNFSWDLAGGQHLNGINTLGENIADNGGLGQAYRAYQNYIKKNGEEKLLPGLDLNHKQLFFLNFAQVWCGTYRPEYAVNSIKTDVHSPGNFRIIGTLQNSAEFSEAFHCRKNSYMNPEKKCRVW

Row | Compound | degradation of BCM by CD10 in presence of TOP [1] | degraded fragment observed after CD10 treatment ([2]; 125I label on N-terminal tyrosine, position in polyacrylamide gel compared with labeled marker) | change in intact BCM over time with CD10 plus TOP ([2]; CD10 60 μg/mL + TOP 1 μM, time course, 125I-labeled BCM 50 μg) | time after which intact BCM completely disappeared ([2]; CD10 60 μg/mL, time course, 125I-labeled BCM 50 μg, Tris-HCl pH 7.1 buffer, electrophoresis, autoradiography) | fraction of BCM degraded on incubation with brush border of the intestinal mucosa ([3]; 24 h) | fraction of BCM degraded by digestive juice and jejunal brush border [3]
1 | O=C(O)CNC(=O)C(CS)Cc1ccccc1 (stereo not drawn) [TOP, thiorphan] | completely suppressed |  |  |  |  | 
2 | YPFPGPI [BCM, β-Casomorphin-7] |  | tyr-pro | no decrease | 24 h | 95% | 95%
